Key:
Nrf2 = Nrf2 expression in cardiomyocytes under OGD/R; type: cell-based; conditions: cardiomyocytes under OGD/R condition
Procedure: (§1) Total protein was isolated from H9c2 cells, primary mouse cardiomyocytes, RAW264.7 cells and heart tissue using 1X RIPA buffer containing phosphatase and proteinase inhibitors at 4 °C. After measurement of the concentration, the cell lysates were separated by sodium dodecyl sulphate polyacrylamide gel electrophoresis (SDS-PAGE) and transferred to polyvinylidene fluoride (PVDF) membranes. The membranes were blocked in Tris-buffered saline-Tween 20 (TBST) buffer with 5% BSA for 1 h and incubated with primary antibodies (1:1000 dilution) overnight at 4 °C. After the membranes was washed by TBST buffer for three times, they were incubated with horseradish peroxidase (HRP)-conjugated secondary mouse or rabbit antibodies (1:3,000 dilution) at room temperature (RT) for 1.5 h and then detected by SuperEnhanced chemiluminescence (ECL) reaction reagents (GBCBIO Technologies Inc., Guangzhou, Guangdong, China). In brief, drop evenly the ECL working liquid onto the membrane at the ratio of 1 mL ECL working liquid and 10 cm^2 of membrane. After letting the membranes stand for 1-2 min, the bands of the respective proteins were detected with the exposure time of 10 ~60 s.

Keap1 C23S = molecular target: T1, Keap1 C23S (Homo sapiens, UniProt Q14145, C23S); assay: ITC titration of PBA with Keap1-C23S; type: binding; conditions: 25 ℃
T1 construct: His (N); made in house; host or cells: E. coli BL21 (DE3)
T1 sequence (Q14145 whole entry C23S): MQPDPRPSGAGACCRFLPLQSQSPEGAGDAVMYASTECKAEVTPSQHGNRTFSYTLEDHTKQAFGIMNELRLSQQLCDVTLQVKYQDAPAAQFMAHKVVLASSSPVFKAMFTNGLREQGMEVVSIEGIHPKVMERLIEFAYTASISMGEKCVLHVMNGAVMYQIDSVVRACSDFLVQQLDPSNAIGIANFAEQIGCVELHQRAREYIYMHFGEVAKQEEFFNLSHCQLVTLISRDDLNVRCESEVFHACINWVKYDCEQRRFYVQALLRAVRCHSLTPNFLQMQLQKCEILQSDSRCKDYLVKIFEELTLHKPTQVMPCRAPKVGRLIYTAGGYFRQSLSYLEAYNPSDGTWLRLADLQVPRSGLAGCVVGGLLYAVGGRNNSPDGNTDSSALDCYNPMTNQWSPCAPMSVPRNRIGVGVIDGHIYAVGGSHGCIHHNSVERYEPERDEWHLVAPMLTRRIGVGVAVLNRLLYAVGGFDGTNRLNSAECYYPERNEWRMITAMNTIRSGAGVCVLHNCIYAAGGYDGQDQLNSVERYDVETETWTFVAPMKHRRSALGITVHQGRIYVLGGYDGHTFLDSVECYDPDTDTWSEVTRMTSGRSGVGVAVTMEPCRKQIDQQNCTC
Procedure: (§2) The Keap1 was amplified by PCR using a human cDNA library, and was subcloned into the vector pET28-TEV, which contained one tobacco etch virus (TEV) protease cleavage site at the upstream multiple cloning site. The protein was expressed in E. coli BL21 (DE3) cells and incubated at 37 °C until the OD600 value reached 0.6, using 0.2 mM isopropyl β-D-1-thiogalactopyranoside (IPTG) overnight induction at 18 °C. The cells were isolated by centrifugation, resuspended in ice-cold lysis buffer and lysed by cryogenic overpressure cell breaker at 1,200 psi. The lysates were centrifuged for 60 min at 14,000 rpm to obtain the supernatant. Gravity flow purification of Keap1 protein was obtained at room temperature using 1 mL of Ni-NTA and eluted in buffer containing 250 mM imidazole, followed by 1 mL of HiTrap QHP for the second step purification. The final protein was purified and validated by Superdex 200 10/300GL resin.
(§3) The mutant plasmid DNA was obtained by PCR. The PCR products were cleaved by DpnI restriction enzymes. The restriction endonuclease-cleaved mixture was subsequently transformed into E. coli DH5α. Colonies were evaluated by colony PCR and sequenced. The mutant plasmid was transformed into E. coli BL21 (DE3) after successful sequencing. The steps for expression and purification of all recombinants were described above.
(§4) Isothermal calorimetry (ITC) titration experiments were performed at 25 °C. WT Keap1, Keap1 mutants and PBA were dissolved in binding buffer (40 mM Tris-HCl pH 8.0, 250 mM NaCl). In a typical experiment, 60 μL of PBA (1 mM) was injected 19 times at 2-min intervals from a stirring syringe into the sample cell containing 300 μL of WT protein or mutants (30 μM). The first injection was 0.4 μL of PBA, and the subsequent 18 injections were 2 μL each time. The site-binding models were determined by using MicroCal Origin software.

Keap1 = system: T2, Keap1; assay: Pull-down with PBA-Sepharose 4B beads, cell lysate; type: binding; conditions: 4 °C, immunoblot, Sepharose 4B beads only as negative control
T2 construct: endogenous in cells; host or cells: RAW264.7
Procedure: PBA-Sepharose 4B beads were created by dissolving PBA in coupling buffer (100 mM NaHCO3, pH 8.3, 0.5 M NaCl). After washing with 1 mM HCl medium, Sepharose 4B beads were mixed with PBA coupling buffer and slowly rotated overnight at 4 °C. Excess PBA was washed away with coupling buffer and any remaining active groups were blocked with 0.1 M Tris-HCl buffer (pH 8.0) for 2 h. The medium was then washed with 0.1 M acetate buffer (pH 4.0) containing 0.5 M NaCl followed by a wash with 0.1 M Tris-HCl (pH 8.0) that also contained 0.5 M NaCl. PBA-Sepharose 4B beads were ready for use in the pull-down assay. The RAW264.7 cellular supernatant fraction (600 µg) was incubated with either PBA-Sepharose 4B or Sepharose 4B as a negative control in reaction buffer (50 mM Tris-HCl, pH 7.5, 5 mM EDTA, 150 mM NaCl, 1 mM DTT, 0.01% NP-40, 2 µg/mL of BSA, 0.02 mM PMSF, 1 × protease inhibitor cocktail). After incubation with gentle rocking overnight at 4 °C, the beads were washed five times with wash buffer (50 mM Tris-HCl, pH 7.5, 5 mM EDTA, 150 mM NaCl, 1 mM DTT, 0.01% NP-40, 0.02 mM PMSF) and proteins bound to the beads were analyzed by immunoblotting assay with a Keap1 antibody.

HO-1 and NQO1 [1] = assay: HO-1 and NQO1 protein expression, RAW264.7; type: cell-based; conditions: RAW264.7, 24 h, dose-dependent
Procedure: as §1

Keap1 C77S = molecular target: T3, Keap1 C77S (Homo sapiens, UniProt Q14145, C77S); assay: ITC titration of PBA with Keap1-C77S; type: binding; conditions: 25 ℃
T3 construct: His (N); made in house; host or cells: E. coli BL21 (DE3)
T3 sequence (Q14145 whole entry C77S): as the sequence (Q14145 whole entry C23S) above, with S23C, C77S counted along it
Procedure: as §2, §3, §4

Keap1 C38S = molecular target: T4, Keap1 C38S (Homo sapiens, UniProt Q14145, C38S); assay: ITC titration of PBA with Keap1-C38S; type: binding; conditions: 25 ℃
T4 construct: His (N); made in house; host or cells: E. coli BL21 (DE3)
T4 sequence (Q14145 whole entry C38S): as the sequence (Q14145 whole entry C23S) above, with S23C, C38S counted along it
Procedure: as §2, §3, §4

HO-1 and NQO1 [2] = assay: HO-1 and NQO1 protein expression, H9c2; type: cell-based, rat; conditions: H9c2 cells, 24 h, dose-dependent
Procedure: as §1

## C=C(COC(=O)C=Cc1ccc(O)c(O)c1)C(O)COC1OC(CO)C(O)C(O)C1O (stereo not drawn) [PBA, pubescenoside A]
Nrf2
  Nrf2 expression: strongly induced
Keap1 C23S
  Kd: 9.78 µM
  T△S: 3.22 ± 0.00 kcal/mol
  △G: -6.84 ± 0.00 kcal/mol
  △H: -3.62 ± 0.241 kcal/mol
Keap1
  binding of Keap1 to PBA-Sepharose 4B beads (pull-down): could bind
HO-1 and NQO1 [1]
  HO-1 and NQO1 expression at the protein level: increased
Keap1 C77S
  Kd: 19.5 µM
  T△S: 0.78 ± 0.00 kcal/mol
  △G: -6.43 ± 0.00 kcal/mol
  △H: -5.65 ± 0.866 kcal/mol
Keap1 C38S
  Kd: 8.59 µM
  T△S: 2.32 ± 0.00 kcal/mol
  △H: -4.59 ± 0.199 kcal/mol
HO-1 and NQO1 [2]
  HO-1 and NQO1 expression at the protein level: increased

Reference: publication PMC7738871, “Covalent modification of Keap1 at Cys77 and Cys434 by pubescenoside a suppresses oxidative stress-induced NLRP3 inflammasome activation in myocardial ischemia-reperfusion injury” (Theranostics, 2021)
